These are literature values, as cited in patent publication US7527814B2, “Process for the isolation of calliterpenone” (Council of Scientific and Industrial Research, priority 2006, dated 2009).

Series [1] deals with plant growth. The following applies: if used in a particular method.
Series [2] deals with growth retardant effects produced by allelochemicals. The following applies: Singh et al., U.S. Pat. No. 6,673,749 (2004).

Take `CC1(C)C(=O)CC[C@@]2(C)[C@H]1CC[C@@]13C[C@H](CC[C@@H]12)[C@@](O)(CO)C3` [calliterpenone, 16α,17 dihydroxy-3-oxo phyllocladane]: the “plant growth promoting effect compared with GA3” value in series [1] is reported as “better plant growth promoting effect than GA3”. The “effect on growth retardant effects produced by allelochemicals” value in series [2] was “antagonizes the growth retardant effects produced by allelochemicals”.
